We go through one compound from patent US10213451B2, “Methods and compounds for modulating the secretion or expression of adhesion proteins or angiopoietins of cells” (PACIFIC ARROW LIMITED, priority 2004, dated 2019).

Values after ≈ are worked out from the molar mass of the structure shown.

The subject of experiment [1] is ES2 (human ovarian cancer) cells transplanted sc. Kind of experiment: Animal study, size of sc ES2 tumor. The format is in vivo, Athymic Nu/Nu mice. On the procedure:
• Athymic Nu/Nu mice (2-3 months old) were transplanted sc with ES2 (human ovarian cancer) cells. • Five days after the transplant (day one), mice were divided into two groups (H and J) with two animals in each group. • Group H: On days 1-5, and 8-10 mice received daily drug administration of Xanifolia-Y, by i.p. route at dose of 2.5 mg/kg. • Group J mice received no drug-treatment.

Another experiment concerns HeLa cells. The experiment can be described thus: MTT assay HeLa. It is filed as cell-based. Particulars: Homo sapiens. On the procedure:
(§1) Cells. Human cancer cell lines were obtained from American Type Culture Collection: HTB-9 (bladder), HeLa-S3 (cervix), DU145 (prostate), H460 (lung), MCF-7 (breast), K562 (leukocytes), HCT116 (colon), HepG2 (liver), U2OS (bone), T98G (brain), SK-MEL-5 (Skin) and OVCAR-3 (ovary). The cells were grown in following culture media: HeLa-53, DU145, MCF-7, Hep-G2 and T98G are in MEN (Earle's salts); HTB-9, H460, K562 and OVCAR-3 in RPMI-1640; HCT-116 and U2OS in McCoy-5A. They are supplemented with 10% fetal calf serum, glutamine and antibiotics, and incubated in an incubator with 5% CO2 humidified at 37° C.
MTT Assay. The procedure for MTT assay followed the method described by Carmichael et al. (1987) with modifications. […] The formazan (product of the reduction of tetrazolium by viable cells) formed and was dissolved with DMSO and the O.D. at 490 nm, and was measured by an ELISA reader. The MTT level of the cells before drug-treatment was also measured (T0). The % cell-growth (% G) is calculated as: % G=(TD−T0/TC−T0)×100(1), where TC or TD represents O.D. readings of control or drug-treated cells. When T0>TD, then the cytotoxicity (LC) expressed as % of the control is calculated as: % LC=(TD−T0/T0)×100(2).
In general terms: Tetrazolium dyes change colour on reduction, which living cells bring about.

Experiment [2] deals with blood vessels in ES2 (human ovarian cancer) xenograft tumor. The experiment can be described thus: Genesis of blood vessel in xenograft tumor. The format is in vivo, Athymic Nu/Nu mice. Particulars: i.p. 2.5 mg/kg on days 10-15 and 18-22, H&E sections. On the procedure:
Method: Athymic Nu/Nu mice (5-6 weeks old) are divided into two groups (1 and 2) with 5 animals in each group. On day 0, all mice were transplanted intra-peritoneally with one million ES2 (human ovarian cancer) cells. Animals were randomly divided into two groups:
Group 2: Drug-treatment group. On days 10-15 and 18-22, animals received daily drug administration of Xanifolia-Y, by i.p. route at dosage of 2.5 mg/kg.
Animals with high tumor burden were euthanized and solid tumors were taken out from these mice (between 18-27 days). Tumor tissues fixed with formalin at room temperature. The fixed tissues were sectioned and stained with Haematoxylin and eosin (H&E). The red blood cells inside the micro blood vessels were identified under a microscope.

Experiment [3] concerns OVCAR3 cells (from ovary). Kind of experiment: MTT assay OVCAR3. The format is cell-based. Particulars: Homo sapiens, OVCAR-3; OVCAR3, Serous. Here is the method: as §1
MTT Assay. […] The formazan (product of the reduction of tetrazolium by viable cells) formed and was dissolved with DMSO and the O.D. at 490 nm, and was measured by an ELISA reader. The MTT level of the cells before drug-treatment was also measured (T0). The % cell-growth (% G) is calculated as: % G=(TD−T0/TC−T0)×100(1), where TC or TD represents O.D. readings of control or drug-treated cells. When T0>TD, then the cytotoxicity (LC) expressed as % of the control is calculated as: % LC=(TD−T0/T0)×100(2).
Majority of ovarian cancers arise from the surface epithelium of ovary, most of them belong to the histological subtypes of clear cell and serous carcinoma. […] The inhibition activity exerted by Xanifolia-Y was determined with MTT assay.

Experiment [4] deals with swelling of the recto-anus of rats. Kind of experiment: Croton oil induced swelling of the recto-anus (hemorrhoids model). The format is in vivo, SD rats. Here is the method: SD rats, male, age-matched 7-8 weeks old weighing 163±18 g were in the experiment. The tested animals were allowed to acclimate for a week.
A cotton swab with a diameter of 4 mm soaked with 0.16 mL of inducer (deionized water:pyridine:ethyl ether:6% croton oil/ethyl ether, 1:4:5:10) was applied to the rat's anus for 12 seconds. The final concentration of croton oil was 3%. The edema developed linearly until 7-8 hours after application and the severity of the edema was sustained for more than 24 hours. Twenty-four hours later, recto-anus tissue (approx. 10 mm long) was isolated after the rats were euthanized. The weights of rat body and recto-anus were measured. The recto-anus coefficient (RAC) was calculated using the formula: weight of recto-anus (mg)/body weight (g). RAC=weight of recto-anus (mg)/body weight (g)×100%
The rates were randomly divided into 5 groups: control, positive control and 3 test groups, and each group had 8 rats. The dose for 3 groups of rats are 10, 20 and 40 mg/kg. The dose of 0.5% CMC-Na for control group is the same as the each test group. The tested drug was fed into the stomach on the morning, once a day before the animal modeling for 5 days. The anus suppository was applied to positive control once after the animal modeling (1 mL/100 g). The weights of recto-anus and RACs were calculated, compared with the controls and subject to a student t-test.

With `C/C=C(/C)C(=O)O[C@H]1[C@H](OC(=O)/C(C)=C\C)[C@@]2(CO)C(CC1(C)C)C1=CCC3[C@@]4(C)CC[C@H](O[C@@H]5OC(C(=O)O)[C@@H](O)C(O[C@@H]6O[C@@H](CO)C(O)C6O)C5O[C@@H]5OC(CO)[C@H](O)C(O)C5O)C(C)(C)C4CC[C@@]3(C)[C@]1(C)[C@@H](O)[C@H]2O` (stereo partly drawn) [Xanifolia-Y, 3-O-[β-D-galactopyranosyl (1→2)]-α-L-arabinofuranosy (1→3)-β-D-glucuronopyranosyl-21,22-O-diangeloyl-3β, 15α, 16α, 21β, 22α, 28-hexahydroxyolean-12-ene], the “tumor size smaller than in mice with no drug” value in experiment [1] (10 days period) was 45%. In experiment [1] (Group H: i.p. 2.5 mg/kg days 1-5 and 8-10, in 10 days), this compound showed a tumor size of 10 mm. Further, the results for the IC50 (in the experiment on HeLa cells; in experiment [3]) were 20 µg/mL (≈ 17.5 µM) and 2.2 µM, respectively. Moreover, the “blood vessels in tumor sections” value in experiment [2] is “more blood vessels were observed in the control Group1 than those in the drug-treated Group 2”; in experiment [2] (listed as Xanifolia Y), “More blood vessels were observed in the control Group 1 than those in the drug-treated Group 2”. Besides, the figures for the RAC in experiment [4] (10 mg/Kg), in experiment [4] (20 mg/Kg) and in experiment [4] (40 mg/Kg) were 1.83 ± 0.36, 1.61 ± 0.24 and 1.51 ± 0.23, respectively. The Reduction rate % is listed as 21.5% in experiment [4] (10 mg/Kg), 30.9% in experiment [4] (20 mg/Kg) and 35.1% in experiment [4] (40 mg/Kg). The “Weight of recto-anus” value in experiment [4] (10 mg/Kg fed into the stomach once a day for 5 days) was determined as 4.68 ± 0.77 g; in experiment [4] (20 mg/Kg), 4.28 ± 0.60 g; in experiment [4] (40 mg/Kg), 3.97 ± 0.65 g.
